Assay results from PMC12297423, “Dual α-amylase and α-glucosidase inhibition by 1,2,4-triazole derivatives for diabetes treatment” (Scientific Reports, 2025).
Like-named read-outs stand apart in the source and are kept apart here.

What was measured:
[1] = test system: Saccharomyces cerevisiae α-glucosidase; experiment: In vitro α-glucosidase inhibition assay (BioVision kit, pNPG); assay type: biochemical; settings: for %inh α-glucosidase: Table 2S
Method: Using BioVision’s α-Glucosidase Inhibitor Screening Kit (Colorimetric) (Catalogue #K938-100) at (OD: 410 nm), the in vitro α-glucosidase suppression effect for the designed 1,2,4-triazole derivatives 3, 4, 6, 8, 9, and 10 was carried out. The results were analyzed on a multi-well spectrophotometer (ELISA reader) using a 96-well microplate in compliance with the manufacturer’s instructions as previously described[49],[50]. The α-glucosidase inhibition assay was conducted using Saccharomyces cerevisiae α-glucosidase (0.5–1 U/mL in phosphate buffer, pH 6.8). Test compounds (63–1000 µg/mL) were pre-incubated with the enzyme at 37 °C for 10 min, followed by addition of pNPG (5 mM) and further incubation for 30 min. The reaction was stopped with 0.2 M Na2CO3, and absorbance was measured at 405 nm. […] Inhibition (%) was calculated as above, and IC50 values were derived from nonlinear regression analysis Table 2S.

[2] = target: T1, porcine pancreatic α-amylase (Sus scrofa, UniProt P00690); experiment: In vitro α-amylase inhibition assay (BioVision kit / modified DNSA method); assay type: biochemical; settings: for %inh α-amylase: Table 1S
T1 construct: purchased BioVision K482-100
T1 sequence (P00690 16-511): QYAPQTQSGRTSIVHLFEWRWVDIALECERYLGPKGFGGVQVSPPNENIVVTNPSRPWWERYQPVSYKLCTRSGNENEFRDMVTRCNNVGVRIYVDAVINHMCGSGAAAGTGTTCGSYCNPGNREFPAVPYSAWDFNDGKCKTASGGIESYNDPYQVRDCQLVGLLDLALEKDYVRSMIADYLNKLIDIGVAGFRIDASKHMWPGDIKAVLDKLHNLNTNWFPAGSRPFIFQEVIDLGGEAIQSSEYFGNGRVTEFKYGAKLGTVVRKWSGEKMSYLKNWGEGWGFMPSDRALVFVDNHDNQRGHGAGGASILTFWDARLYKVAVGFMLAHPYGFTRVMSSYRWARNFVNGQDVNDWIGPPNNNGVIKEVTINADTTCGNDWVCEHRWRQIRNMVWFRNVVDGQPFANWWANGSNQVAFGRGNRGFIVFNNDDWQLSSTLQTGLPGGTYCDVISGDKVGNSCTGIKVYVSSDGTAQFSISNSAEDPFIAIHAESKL
Method: The α-amylase inhibition assay was performed using a modified DNSA (3,5-dinitrosalicylic acid) method. Test compounds (dissolved in DMSO) were serially diluted (100, 10, 1, 0.1, and 0.01 µg/mL) and pre-incubated with porcine pancreatic α-amylase (0.5 U/mL in phosphate buffer, pH 6.8) at 37 °C for 10 min. Starch solution (1% w/v) was added, and the reaction proceeded for 30 min at 37 °C. The reaction was terminated by adding DNSA reagent, followed by heating at 85 °C for 10 min. Absorbance was measured at 540 nm using a microplate reader. […] The percentage inhibition was calculated as: [(Acontrol–Asample)/Acontrol] × 100, where Acontrol represents enzyme activity without inhibitor. IC50 values were determined from dose-response curves using GraphPad Prism. Kinetic parameters (KActivity) were derived from ∆RFU (Relative Fluorescence Units) and slope values Table 1S.

[3] = read-out: α-amylase inhibition IC50 (converted)
[4] = table printed in Fig. 9, read-out: α- Amylase IC50 (converted)

Row | Compound | %inh α-glucosidase ([1]; conc 63 (µg/mL)) | %inh α-glucosidase ([1]; conc 125 (µg/mL)) | %inh α-glucosidase ([1]; conc 250 (µg/mL)) | %inh α-glucosidase ([1]; conc 500 (µg/mL)) | %inh α-glucosidase ([1]; conc 1000 (µg/mL)) | %inh α-amylase ([2]; conc 0.01 (µg/mL)) | %inh α-amylase ([2]; conc 0.1 (µg/mL)) | %inh α-amylase ([2]; conc 1 (µg/mL)) | %inh α-amylase ([2]; conc 10 (µg/mL)) | %inh α-amylase ([2]; conc 100 (µg/mL)) | IC50 [2, 3] | IC50 [2, 4] | α-glucosidase inhibition IC50 [1]
1 | C[C@H]1O[C@H](O[C@H]2[C@H](O)[C@@H](O)[C@@H](O[C@H]3[C@H](O)[C@@H](O)C(O)O[C@@H]3CO)O[C@@H]2CO)[C@H](O)[C@@H](O)[C@@H]1N[C@H]1C=C(CO)[C@@H](O)[C@H](O)[C@H]1O (some centres unmarked) [Acarbose, reference compound] | 8.91% | 28% | 40.6% | 58.6% | 76.8% |  |  |  |  |  |  |  | 
2 | COc1ccc(Cc2nnc(SCC(=O)Nc3ccccc3)n2-c2ccccc2)cc1 [Compound 3, 2-((5-(4-methoxybenzyl)-4-phenyl-4H-1,2,4-triazol-3-yl)thio)-N-phenylacetamide] | 15.7% | 30% | 40.9% | 58.5% | 77% | 19.9% | 36.7% | 58.4% | 83.4% | 92.3% | 0.859 µM | 0.876 µM | 0.36 ± 0.01 µg/mL
3 | COc1ccc(Cc2nnc(SCC(=O)Nc3ccc(C(C)=O)cc3)n2-c2ccccc2)cc1 [Compound 4, N-(4-acetylphenyl)-2-((5-(4-methoxybenzyl)-4-phenyl-4H-1,2,4-triazol-3-yl)thio)acetamide] | 19.9% | 36.6% | 50.9% | 63.6% | 82.4% | 25.8% | 44.6% | 62.6% | 85.7% | 93.1% | 0.402 µM | 0.419 µM | 0.27 ± 0.01 µg/mL
4 | COc1ccc(Cc2nnc(SCC(=O)Nc3ccc(C(=O)O)cc3)n2-c2ccccc2)cc1 [Compound 6, 4-(2-((5-(4-methoxybenzyl)-4-phenyl-4H-1,2,4-triazol-3-yl)thio)acetamido)benzoic acid] | 1.67% | 4.01% | 7.55% | 28.9% | 69.2% | 14.4% | 19.9% | 40.6% | 74.1% | 91.3% | 2.61 µM | 2.62 µM | 0.83 ± 0.03 µg/mL
5 | CCOC(=O)c1ccc(NC(=O)CSc2nnc(Cc3ccc(OC)cc3)n2-c2ccccc2)cc1 [Compound 8, Ethyl 4-(2-((5-(4-methoxybenzyl)-4-phenyl-4H-1,2,4-triazol-3-yl)thio)acetamido)benzoate] | 1.46% | 5.94% | 18.4% | 38.9% | 67.3% | 12% | 29.3% | 41.6% | 63.1% | 88.7% | 2.89 µM | 2.89 µM | 0.67 ± 0.02 µg/mL
6 | COc1ccc(Cc2nnc(SCC(=O)Nc3ccc(O)cc3)n2-c2ccccc2)cc1 [Compound 9, N-(4-hydroxyphenyl)-2-((5-(4-methoxybenzyl)-4-phenyl-4H-1,2,4-triazol-3-yl)thio)acetamide] | 4.22% | 7.76% | 14% | 31.9% | 68.2% | 20.6% | 35.3% | 48.3% | 73.3% | 90% | 1.41 µM | 1.42 µM | 0.77 ± 0.02 µg/mL
7 | COc1ccc(Cc2nnc(SCC(=O)Nc3ccc(Br)cc3)n2-c2ccccc2)cc1 [Compound 10, N-(4-bromophenyl)-2-((5-(4-methoxybenzyl)-4-phenyl-4H-1,2,4-triazol-3-yl)thio)acetamide] | 16.3% | 25.1% | 39.9% | 58% | 82.8% | 29.2% | 41.2% | 56.1% | 77.6% | 92.3% | 0.51 µM | 0.528 µM | 0.31 ± 0.01 µg/mL
